Reference: patent publication US4740233A, “Substituted 1,2,4-triazolo[1,5-a]-pyrimidine-2-sulfonamides and compositions and methods of controlling undesired vegetation and suppressing the nitrification of ammonium nitrogen in soil” (The Dow Chemical Company, priority 1986, dated 1988)

Tests used:
cotton = experiment: Postemergent control of plant species; type: in vivo, Gossypium spp.
How it was run: (§1)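 Each compound is dissolved in acetone, mixed with an equal volume of 0.1% surfactant water, and sprayed on plants grown to 2-4 leaves in nutrient soil. Treated and untreated beds sit under identical greenhouse temperature and light for roughly two weeks before growth reduction is rated.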

rape = experiment: Postemergent control of plant species; type: in vivo, Brassica napus
How it was run: as §1

soybean = experiment: Postemergent control of plant species; type: in vivo, Glycine max.
How it was run: as §1

sugar beet = experiment: Postemergent control of plant species; type: in vivo, Beta saccharifera
How it was run: as §1

cocklebur = experiment: Postemergent control of plant species; type: in vivo, Xanthium spp.
How it was run: as §1

jimsonweed = experiment: Postemergent control of plant species; type: in vivo, Datura stramonium
How it was run: as §1

annual morning glory = experiment: Postemergent control of plant species; type: in vivo, Ipomoea spp.
How it was run: as §1

pigweed = experiment: Postemergent control of plant species; type: in vivo, Amaranthus spp.
How it was run: as §1

velvetleaf = experiment: Postemergent control of plant species; type: in vivo, Abutilon theophrasti
How it was run: as §1

corn = experiment: Postemergent control of plant species; type: in vivo, Zea mays
How it was run: as §1

rice [1] = experiment: Postemergent control of plant species; type: in vivo, Oryza sativa
How it was run: as §1

sorghum = experiment: Postemergent control of plant species; type: in vivo, Sorghum vulgare
How it was run: as §1

wheat = experiment: Postemergent control of plant species; type: in vivo, Triticum aestivum
How it was run: as §1

barnyardgrass [2] = experiment: Postemergent control of plant species; type: in vivo, Echinochloa crusgalli
How it was run: as §1

crabgrass = experiment: Postemergent control of plant species; type: in vivo, Digitaria spp.
How it was run: as §1

yellow foxtail = experiment: Postemergent control of plant species; type: in vivo, Setaria lutescens
How it was run: as §1

johnson grass = experiment: Postemergent control of plant species; type: in vivo, Sorghum halepense
How it was run: as §1

wild oats = experiment: Postemergent control of plant species; type: in vivo, Avena fatua
How it was run: as §1

yellow nutsedge [3] = experiment: Postemergent control of plant species; type: in vivo, Cyperus esculentus
How it was run: as §1

rice [4] = experiment: Control of aquatic plant species (paddy water); type: in vivo, Oryza sativa; details: nine days
Experimental: (§2) In testing for such utility, the plant species to be tested were transplanted into 16 oz. containers into about 2 inches of soil when they were in the 1-2 inch stage and then flooded to a depth of about 1 inch. An acetone concentrate of the chemical to be tested was then injected into the paddy water, the volume injected being varied as desired to provide the desired concentration. Percent control was evaluated nine days after application.

barnyardgrass [5] = experiment: Control of aquatic plant species (paddy water); type: in vivo, Echinochloa crusgalli; details: nine days
Experimental: as §2

sprangletop = experiment: Control of aquatic plant species (paddy water); type: in vivo, Leptochloa filiformis; details: nine days
Experimental: as §2

yellow nutsedge [6] = experiment: Control of aquatic plant species (paddy water); type: in vivo, Cyperus esculentus; details: nine days
Experimental: as §2

[7] = system: nitrification of ammonium nitrogen; experiment: Suppression of nitrification of ammonium nitrogen in soil; details: 27° C.
How it was run: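 Soil (20 g) moistened to its 1/3 bar tension value, mixed with test chemical and incubated sealed for two weeks at 27° C. Nitrate extracted with ammonium sulfate solution and measured by nitrate-specific ion electrode; value given as % NH4-N remaining.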

Cc1cc(C)n2nc(S(=O)(=O)Nc3ccccc3)nc2n1 [Compound 1]
plant injury at 500 ppm (cotton; Gossypium hirsutum, post-emergence, 336 h, read-out: percent postemergent control): 0%
plant injury at 500 ppm (rape; Brassica napus, post-emergence, 336 h, read-out: percent postemergent control): 60%
plant injury at 500 ppm (soybean; Glycine max, post-emergence, 336 h, read-out: percent postemergent control): 30%
plant injury at 500 ppm (sugar beet; Beta vulgaris, post-emergence, 336 h, read-out: percent postemergent control): 85%
pest or weed control at 500 ppm (cocklebur; Xanthium strumarium, post-emergence, 336 h, read-out: percent postemergent control): 0%
pest or weed control at 500 ppm (jimsonweed; Datura stramonium, post-emergence, 336 h, read-out: percent postemergent control): 0%
pest or weed control at 500 ppm (annual morning glory; Ipomoea, post-emergence, 336 h, read-out: percent postemergent control): 0%
pest or weed control at 500 ppm (pigweed; Amaranthus retroflexus, post-emergence, 336 h, read-out: percent postemergent control): 60%
pest or weed control at 500 ppm (velvetleaf; Abutilon theophrasti, post-emergence, 336 h, read-out: percent postemergent control): 70%
plant injury at 500 ppm (corn; Zea mays, post-emergence, 336 h, read-out: percent postemergent control): 0%
plant injury at 500 ppm (rice [1]; Oryza sativa, post-emergence, 336 h, read-out: percent postemergent control): 0%
plant injury at 500 ppm (sorghum; Sorghum, post-emergence, 336 h, read-out: percent postemergent control): 40%
plant injury at 500 ppm (wheat; Triticum aestivum, post-emergence, 336 h, read-out: percent postemergent control): 0%
pest or weed control at 500 ppm (barnyardgrass [2]; Echinochloa crus-galli, post-emergence, 336 h, read-out: percent postemergent control): 15%
pest or weed control at 500 ppm (crabgrass; Digitaria sanguinalis, post-emergence, 336 h, read-out: percent postemergent control): 0%
pest or weed control at 500 ppm (yellow foxtail; Setaria, post-emergence, 336 h, read-out: percent postemergent control): 40%
pest or weed control at 500 ppm (johnson grass; Sorghum halepense, post-emergence, 336 h, read-out: percent postemergent control): 60%
pest or weed control at 500 ppm (wild oats; Avena fatua, post-emergence, 336 h, read-out: percent postemergent control): 0%
pest or weed control at 500 ppm (yellow nutsedge [3]; Cyperus, post-emergence, 336 h, read-out: percent postemergent control): 0%
pest or weed control at 2000 g/ha (rice [4]; Oryza sativa, 216 h, 2.0 Kg/Ha, read-out: Percent control): 97%
pest or weed control at 2000 g/ha (barnyardgrass [5]; Echinochloa crus-galli, 216 h, 2.0 Kg/Ha, read-out: Percent control): 95%
pest or weed control at 2000 g/ha (sprangletop; Leptochloa filiformis, 216 h, 2.0 Kg/Ha, read-out: Percent control): 90%
pest or weed control at 2000 g/ha (yellow nutsedge [6]; Cyperus, 216 h, 2.0 Kg/Ha, read-out: Percent control): 70%
% NH4-N Remaining After 2 Weeks Incubation ([7]; 0.01 ppm): 0%
% NH4-N Remaining After 2 Weeks Incubation ([7]; 0.1 ppm): 0%
% NH4-N Remaining After 2 Weeks Incubation ([7]; 1 ppm): 35%
% NH4-N Remaining After 2 Weeks Incubation ([7]; 10 ppm): 75%

Cc1nc2nc(S(=O)(=O)Nc3c(Cl)cccc3Cl)nn2c2c1CCC2 [Compound 108, 6,7-cyclopentano-5-methyl-N-(2,6-dichlorophenyl)-1,2,4-triazolo[1,5-a]pyrimidine-2-sulfonamide]
percent postemergent control (cotton; 500 ppm): 70%
percent postemergent control (rape; 500 ppm): 40%
percent postemergent control (soybean; 500 ppm): 75%
percent postemergent control (sugar beet; 500 ppm): 70%
percent postemergent control (cocklebur; 500 ppm): 80%
percent postemergent control (jimsonweed; 500 ppm): 30%
percent postemergent control (annual morning glory; 500 ppm): 10%
percent postemergent control (pigweed; 500 ppm): 0%
percent postemergent control (velvetleaf; 500 ppm): 90%
percent postemergent control (corn; 500 ppm): 80%
percent postemergent control (rice [1]; 500 ppm): 0%
percent postemergent control (sorghum; 500 ppm): 80%
percent postemergent control (wheat; 500 ppm): 60%
percent postemergent control (barnyardgrass [2]; 500 ppm): 100%
percent postemergent control (crabgrass; 500 ppm): 0%
percent postemergent control (yellow foxtail; 500 ppm): 0%
percent postemergent control (johnson grass; 500 ppm): 100%
percent postemergent control (wild oats; 500 ppm): 0%
percent postemergent control (yellow nutsedge [3]; 500 ppm): 35%
Percent control (rice [4]; 1.0 Kg/Ha): 97%
Percent control (barnyardgrass [5]; 1.0 Kg/Ha): 97%
Percent control (sprangletop; 1.0 Kg/Ha): 97%
Percent control (yellow nutsedge [6]; 1.0 Kg/Ha): 90%
% NH4-N Remaining After 2 Weeks Incubation ([7]; 0.01 ppm): 43%
% NH4-N Remaining After 2 Weeks Incubation ([7]; 0.1 ppm): 69%
% NH4-N Remaining After 2 Weeks Incubation ([7]; 1 ppm): 84%
% NH4-N Remaining After 2 Weeks Incubation ([7]; 10 ppm): 90%
